From patent US9604932B2 (priority 2013, dated 2017)

Experiments:
[1] = Plasma pharmacokinetics in sheep (release of R-100 from R-107), LCMS; assay type: in vivo; details: IV R-100 20 mg/kg bolus
Description: In the following two experiments, the pharmacokinetic of releasing R-100 from R-107, via R-105 that is the reduced form of R-100, was studied in vivo according to the protocol described herein.
100 μl aliquots plasma obtained from R-107-treated sheep or pig were thawed and 200 μl ice-cold ethanol was added to each 100 μl sample to precipitate protein. Samples were then vortexed, placed on ice for 10 minutes, and then spun down at room temperature for 15 minutes. A first 100 μl supernatant from each spun sample was withdrawn and placed in a labeled HPLC micro vial to which 300 μl MPA (LC mobile phase A) was added, and the vial contents were then mixed and submitted for LCMS analysis (kept at 4° C.). The concentration of R-107 was measured in this sample as was the concentration of R105. A second 100 μl supernatant from each spun sample was added to a labelled HPLC micro vial to which 300 μl MPA and 2 μl of Reducing solution (ascorbic acid, 1.0 mg/ml in water) were added. These vials were vortexed; incubated at 50° C. for 1 hour with gentle shaking; and were then cooled to 4° C. and submitted for LCMS analysis. This sample was analyzed for R105, i.e., reduced form of R-100, and the amount measured thus represents the sum of R-100 and R-105 originally present in the plasma. The concentration of R-100 can be calculated from that of the R-105 in the second sample minus that of R-105 in the first sample. However, the concentrations of R-105 were seen to be low (approximately 10% or less of those of R-100) and so the results reported below as R-100 are not corrected for R-105.
Sets of standards (R-100, R-105 and R-107) were prepared by spiking individually in pig plasma. 100 μl aliquots of these spiked plasma samples, after thawing, were included in the above extraction protocol.
Analysis method were carried out with an Agilent HPLC stack, with column eluate directed, via a diverter valve, into the source of an AB Sciex ‘Qstar Elite’ Hybrid TOF, high-resolution mass spectrometer. LC column: Phenomenex Kinetex C18 2.6u 100A, 2.1×50 mm. LC mobile phase A: H2O with 0.02% trifluoroacetic acid (TFA), 0.1% formic acid (HOF); Phase B: acetonitrile (ACN) with 0.02% TFA, 0.1% HOF. Mobile phase flow rate=500 μl/min. Injection size: 8 μl, via Agilent 1100 u-WPS autosampler. […]

[2] = cited from earlier work

CC1(C)CC(CO[N+](=O)[O-])C(C)(C)N1[O] (centres unmarked) [R-100, 3-nitratomethyl-2,2,5,5-tetramethylpyrrolidinyloxy, reference compound]
R-100 in plasma ([1]; 0 hrs post dose): 0 µg/mL
R-100 in plasma ([1]; 0.08 hrs post dose): 6.72 µg/mL
R-100 in plasma ([1]; 0.17 hrs post dose): 6.11 µg/mL
R-100 in plasma ([1]; 0.25 hrs post dose): 5.31 µg/mL
R-100 in plasma ([1]; 0.5 hrs post dose): 2.72 µg/mL
R-100 in plasma ([1]; 1 hrs post dose): 1.63 µg/mL
R-100 in plasma ([1]; 2 hrs post dose): 0.7 µg/mL
R-100 in plasma ([1]; 4 hrs post dose): 0.28 µg/mL
R-100 in plasma ([1]; 8 hrs post dose): 0.03 µg/mL
Solubility in organic solvents [2]: soluble in certain organic solvents such as dimethyl sulfoxide (DMSO)
Solubility in water [2]: highly insoluble in water
